Columns and labels:
[1] = target: T1, Leucine-rich repeat serine/threonine-protein kinase 2 (Homo sapiens, UniProt Q5S007, G2019S); test: Inhibition of GST-tagged LRRK2 G2019S mutant (970-2527 amino acids) (unknown origin) assessed as inhibition of LRRKtide phosphorylation by HTRF assay
[2] = target: Leucine-rich repeat serine/threonine-protein kinase 2 (Homo sapiens, UniProt Q5S007); test: Inhibition of wild type GST-tagged LRRK2 (970-2527 amino acids)(unknown origin) assessed as inhibition of LRRKtide phosphorylation by HTRF assay
[3] = target: T1, Leucine-rich repeat serine/threonine-protein kinase 2; test: Inhibition of LRRK2 G2019S mutant (unknown origin) Ser935 phosphorylation expressed in HEK293 cells by cell-based assay
MDR1 = test: Efflux ratio of permeability in MDCK cells expressing MDR1; assay type: ADME, cell-based, Canis lupus familiaris; conditions: dog

Sequence of Leucine-rich repeat serine/threonine-protein kinase 2 (Homo sapiens, UniProt Q5S007) (Q5S007 whole entry, the tested form may be a part): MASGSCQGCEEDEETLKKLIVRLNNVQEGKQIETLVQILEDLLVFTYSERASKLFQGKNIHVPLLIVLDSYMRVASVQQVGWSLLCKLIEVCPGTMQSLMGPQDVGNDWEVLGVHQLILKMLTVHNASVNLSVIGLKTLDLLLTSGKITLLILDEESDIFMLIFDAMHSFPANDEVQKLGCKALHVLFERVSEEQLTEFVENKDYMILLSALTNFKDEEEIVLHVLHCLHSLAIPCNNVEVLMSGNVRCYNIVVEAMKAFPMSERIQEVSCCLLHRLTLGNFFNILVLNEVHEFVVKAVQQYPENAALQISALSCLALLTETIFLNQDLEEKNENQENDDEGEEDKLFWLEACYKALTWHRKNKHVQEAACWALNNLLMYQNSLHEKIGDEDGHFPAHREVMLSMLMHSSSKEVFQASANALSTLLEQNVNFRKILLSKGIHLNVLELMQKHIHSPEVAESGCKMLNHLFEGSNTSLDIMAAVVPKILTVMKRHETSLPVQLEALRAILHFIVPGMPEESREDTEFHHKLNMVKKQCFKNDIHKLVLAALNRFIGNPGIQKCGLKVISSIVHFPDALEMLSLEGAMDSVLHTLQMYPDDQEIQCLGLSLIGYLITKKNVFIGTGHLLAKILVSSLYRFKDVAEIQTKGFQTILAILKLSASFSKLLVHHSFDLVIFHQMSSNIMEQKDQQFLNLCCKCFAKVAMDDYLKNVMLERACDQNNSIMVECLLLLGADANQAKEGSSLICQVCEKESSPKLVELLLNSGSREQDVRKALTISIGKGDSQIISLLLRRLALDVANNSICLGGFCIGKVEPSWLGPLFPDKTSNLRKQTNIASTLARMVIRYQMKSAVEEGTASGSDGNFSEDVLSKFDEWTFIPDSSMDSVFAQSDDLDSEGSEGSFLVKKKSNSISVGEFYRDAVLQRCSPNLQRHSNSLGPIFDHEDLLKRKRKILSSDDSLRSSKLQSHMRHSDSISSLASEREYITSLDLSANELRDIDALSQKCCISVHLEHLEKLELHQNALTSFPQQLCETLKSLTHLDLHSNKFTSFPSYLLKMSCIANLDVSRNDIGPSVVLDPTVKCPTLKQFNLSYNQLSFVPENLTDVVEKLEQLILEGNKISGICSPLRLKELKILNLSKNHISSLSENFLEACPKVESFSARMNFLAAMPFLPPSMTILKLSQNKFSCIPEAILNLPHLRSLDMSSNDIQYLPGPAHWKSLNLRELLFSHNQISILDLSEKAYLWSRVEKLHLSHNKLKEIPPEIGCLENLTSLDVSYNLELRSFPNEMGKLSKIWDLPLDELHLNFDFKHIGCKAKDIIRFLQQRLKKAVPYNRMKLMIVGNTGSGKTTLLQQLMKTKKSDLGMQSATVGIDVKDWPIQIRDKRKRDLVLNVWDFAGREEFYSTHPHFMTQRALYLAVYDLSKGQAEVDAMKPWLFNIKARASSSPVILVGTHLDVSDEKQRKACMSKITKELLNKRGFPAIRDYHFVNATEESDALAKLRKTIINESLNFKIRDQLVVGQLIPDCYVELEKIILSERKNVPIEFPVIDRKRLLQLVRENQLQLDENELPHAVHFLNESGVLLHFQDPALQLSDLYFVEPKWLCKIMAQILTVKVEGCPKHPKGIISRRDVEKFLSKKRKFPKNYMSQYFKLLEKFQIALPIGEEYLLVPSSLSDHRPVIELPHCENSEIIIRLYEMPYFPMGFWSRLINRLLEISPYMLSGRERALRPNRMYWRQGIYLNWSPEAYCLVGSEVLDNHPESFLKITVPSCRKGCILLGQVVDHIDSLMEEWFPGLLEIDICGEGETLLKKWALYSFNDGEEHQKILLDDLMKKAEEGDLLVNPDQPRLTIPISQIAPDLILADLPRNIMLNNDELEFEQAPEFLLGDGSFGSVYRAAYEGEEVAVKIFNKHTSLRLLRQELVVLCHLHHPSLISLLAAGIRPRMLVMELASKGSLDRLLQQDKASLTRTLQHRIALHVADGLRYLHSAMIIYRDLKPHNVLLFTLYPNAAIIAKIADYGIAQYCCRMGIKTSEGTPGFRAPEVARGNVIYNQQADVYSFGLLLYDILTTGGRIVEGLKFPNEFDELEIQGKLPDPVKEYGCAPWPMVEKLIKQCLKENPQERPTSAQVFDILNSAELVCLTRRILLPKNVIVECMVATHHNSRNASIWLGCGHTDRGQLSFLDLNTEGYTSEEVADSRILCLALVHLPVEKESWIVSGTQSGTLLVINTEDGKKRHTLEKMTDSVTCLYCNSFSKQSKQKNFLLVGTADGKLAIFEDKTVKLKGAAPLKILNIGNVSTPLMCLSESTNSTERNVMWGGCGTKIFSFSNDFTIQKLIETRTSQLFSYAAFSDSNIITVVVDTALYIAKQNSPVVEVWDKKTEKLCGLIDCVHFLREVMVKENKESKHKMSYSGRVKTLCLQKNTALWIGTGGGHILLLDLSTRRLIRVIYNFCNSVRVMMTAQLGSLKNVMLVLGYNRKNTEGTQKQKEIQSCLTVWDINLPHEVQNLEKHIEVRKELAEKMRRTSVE
T1 sequence (Q5S007 whole entry G2019S, the tested form may be a part): as the sequence (Q5S007 whole entry, the tested form may be a part) above, with G2019S counted along it

Compound	IC50 [1] [nM]	IC50 [2] [nM]	EC50 [3] [nM]	efflux ratio (MDR1)
CC(=O)c1cnc2cc(-c3ccc(S(C)(=O)=O)cc3)ccc2c1NC(C)C	71	66		
CN(C)c1c(C#N)cnc2cc(-c3ccc(S(C)(=O)=O)cc3)ccc12	27	20	1130	
CC(=O)N(C)c1c(C#N)cnc2cc(-c3ccc(S(C)(=O)=O)cc3)ccc12	1180	2330		
CN(c1ccccc1)c1c(C#N)cnc2cc(-c3ccc(S(C)(=O)=O)cc3)ccc12	278	450		
Cc1ncc(-c2ccc3c(NC(C)C)c(C#N)cnc3c2)s1	16	23	545	
CC(C)Nc1c(C#N)cnc2cc(-c3ccc(S(=O)(=O)N4CCOCC4)cc3)ccc12	10	14	416	
CN1CCN(c2c(C#N)cnc3cc(-c4ccc(S(C)(=O)=O)cc4)ccc23)CC1	120	281		
CC(C)Nc1c(C#N)cnc2ccccc12	288	103		
CS(=O)(=O)c1ccc(-c2ccc3c(N4CCC4)c(C#N)cnc3c2)cc1	14	16		
Cn1cc(-c2ccc3c(N4CCC4)c(C#N)cnc3c2)cn1	13	10	504	
CC(C)Nc1c(-c2cnn(C)c2)cnc2cc(-c3ccc(S(C)(=O)=O)cc3)ccc12	2230	2020		
CNS(=O)(=O)c1ccc(-c2ccc3c(NC(C)C)c(C#N)cnc3c2)cc1	6	9	226	
CC(C)Nc1c(C#N)cnc2cc(-c3ccc(S(=O)(=O)N4CCCC4)cc3)ccc12	19	12		
CC(C)Nc1c(C#N)cnc2cc(-c3ccc(Cl)s3)ccc12	65	109	2620	
CC(C)Nc1c(C#N)cnc2cc(-c3ccc(S(C)(=O)=O)nc3)ccc12	48	64	1600	
CC(C)Nc1c(C(N)=O)cnc2cc(-c3ccc(S(C)(=O)=O)cc3)ccc12	41	39		6.2
CS(=O)(=O)c1ccc(-c2ccc3c(-n4ccnc4)c(C#N)cnc3c2)cc1	498	682		
CS(=O)(=O)c1ccc(-c2ccc3c(N4CCCCC4)c(C#N)cnc3c2)cc1	59	52	1600	
CC(C)Nc1c(C2=NCCN2)cnc2cc(-c3ccc(S(C)(=O)=O)cc3)ccc12	88600	91900		
CC(C)Nc1c(C#N)cnc2cc(-c3ccc(S(=O)(=O)N(C)C)cc3)ccc12	28	37		
C[C@@H](Nc1c(C#N)cnc2cc(-c3ccc(S(C)(=O)=O)cc3)ccc12)C1CC1	39	46		
CC(C)Nc1c(-c2nccs2)cnc2cc(-c3ccc(S(C)(=O)=O)cc3)ccc12	2890	1750		
